According to paper PMC4587935, “Structure and Sialyllactose Binding of the Carboxy-Terminal Head Domain of the Fibre from a Siadenovirus, Turkey Adenovirus 3” (PLoS ONE, 2015):

How the values were obtained:
[1] = system: His-tagged TAdV-3 fibre head protein; assay: Glycan microarray binding assay; design: species or system turkey adenovirus 3 (TAdV-3); details: for inhibition of fibre head binding to the glycan microarray: in the presence of 100 mM sugar; for fluorescence intensity on glycan microarray: binding threshold approximately 1,600 RFU (five times background)
Description: The proteins were profiled on neoglycoconjugate microarrays to identify potential glycan ligands for TAdV-3 fibre head proteins. The microarrays were constructed as previously described and presented 71 different simple to complex glycans on glycoproteins or attached to protein backbones through linkers (S1 Table). Several viral protein concentrations were titrated in Tris-buffered saline supplemented with Ca^2+ and Mg^2+ ions (TBS; 20 mM Tris-HCl, 100 mM NaCl, 1 mM CaCl2, 1 mM MgCl2, pH 7.2) and with 0.05% Tween 20 (TBS-T). It was determined that 10 μg/ml in TBS-T was the concentration for optimal signal to noise ratio. Similarly, the concentration of the anti-6XHis IgG-CF640R (Sigma Aldrich, Tres Cantos, Spain) monoclonal antibody for detection of viral protein binding was optimized and a 1 in 750 dilution in TBS-T was subsequently used.
Two-step incubations were carried out as previously described with minor modifications. First, the viral proteins were incubated on the microarray slides for 1 h at 23°C and 4 rpm. The microarray slides and gaskets were then separated while submerged under TBS-T, washed 3 times in TBS-T for 2 min each with gentle agitation in a Coplin jar, with a final 2 min wash in TBS. After centrifuging to dry the slides (1,500 rpm, 5 min), all subsequent steps were carried out in the dark. The microarray slides were incubated with the fluorescently labelled anti-6XHis IgG as in the first step, washed and dried by centrifugation and scanned immediately on an Agilent G2505 microarray scanner using the Cy5 channel (633 nm excitation, 80% PMT, 5 mm resolution). All experiments were carried out in triplicate and binding inhibition assays were performed in parallel in the presence of 100 mM galactose and lactose to verify specific binding. Data extraction and analysis was carried out as previously described. Binding was taken as above an experimental threshold of five times the background, which was approximately 1,600 relative fluorescence units (RFU) in this case.

[2] = biological target: TAdV-3 fiber head mutant K439A (avirulent context) (Turkey adenovirus 3, UniProt A0ABF7PFF5, K439A); assay: biochemical; assay type: binding, turkey adenovirus 3 (TAdV-3)
[3] = system: avirulent TAdV-3 fibre head; assay: Saturation transfer difference NMR (STD-NMR), avirulent variant; assay type: binding, turkey adenovirus 3 (TAdV-3); details: 1.5 mM ligand, 15 μM protein, phosphate pH 7.7, 298 K
Description: (§1) Saturation transfer difference nuclear magnetic resonance spectroscopy (STD-NMR) experiments were performed at 298 K in an AVANCE 500 MHz spectrometer (Bruker, Rivas Vaciamadrid, Spain) equipped with a 5 mm inverse probe head. STD experiments were performed in fully deuterated 10 mM potassium phosphate pH 7.7. Samples contained 1.5 mM of either 3'- or 6'-sialyllactose and 15 μM of either the virulent or the avirulent versions of TAdV-3 fibre head. The protein was saturated on-resonance at 0.5 ppm and off-resonance at 100 ppm with a train of Gaussian-shaped pulses of 50 ms each, totalling an irradiation time of 2 s. A T2 relaxation filter consisting of a 15 ms 5 kHz spin-lock was used to reduce the protein background signals. STD spectra were obtained by subtracting the on-resonance spectra from the off-resonance spectra. STD intensities were measured comparing each STD spectrum with the correspondent off-resonance spectrum and normalizing to the ligand peak receiving the highest degree of saturation (in all cases, the 5''-N-acetyl). The resonances of 3'- or 6'-sialyllactose were assigned by standard procedures (^1H-^1H TOCSY 70 ms, ^1H-^1H ROESY 600 ms and phase-sensitive ^1H-^13C HSQC). Data were analyzed with TOPSPIN (Bruker) and figures were made with MESTRENOVA (Mestrelab Research, Santiago de Compostela, Spain).

[4] = system: virulent TAdV-3 fibre head; assay: Saturation transfer difference NMR (STD-NMR), virulent variant; assay type: binding, turkey adenovirus 3 (TAdV-3); details: 1.5 mM ligand, 15 μM protein, phosphate pH 7.7, 298 K
Description: as §1

[5] = biological target: TAdV-3 fiber head mutant E392A (avirulent context) (Turkey adenovirus 3, UniProt A0ABF7PFF5, E392A); assay: biochemical; assay type: binding, turkey adenovirus 3 (TAdV-3)
[6] = biological target: TAdV-3 fiber head mutant R368A (avirulent context) (Turkey adenovirus 3, UniProt A0ABF7PFF5, R368A); assay: biochemical; assay type: binding, turkey adenovirus 3 (TAdV-3)
[7] = biological target: T1, TAdV-3 fibre head (virulent) (Turkey adenovirus 3, UniProt Q9YUQ4); assay: Isothermal titration calorimetry (ITC), virulent fibre head; assay type: binding, turkey adenovirus 3 (TAdV-3); details: 25°C
T1 sequence (Q9YUQ4 304-454): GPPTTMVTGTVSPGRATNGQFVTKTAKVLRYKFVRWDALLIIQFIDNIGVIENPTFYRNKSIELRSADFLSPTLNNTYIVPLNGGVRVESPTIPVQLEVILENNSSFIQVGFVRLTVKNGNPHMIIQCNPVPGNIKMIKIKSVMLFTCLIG
Description: (§2) Isothermal titration calorimetry (ITC) was performed at 25°C with a Microcal VP-ITC microcalorimeter (GE Healthcare, Madrid, Spain). The proteins were exhaustively dialyzed against the appropriate buffer (10 mM MES-NaOH pH 6.0 or 20 mM Tris-HCl, 100 mM NaCl pH 7.2), and sialyllactose solutions were prepared in the final dialysate. Titrations were performed by stepwise injections of the 3'- or 6'-sialyllactose-containing solution (21–40 mM) into the reaction cell loaded with the protein at concentrations of 78–474 μM. When required, a second set of injections followed the first one after refilling the injection pipette with the same sialyllactose solution. The CONCAT32 (GE Healthcare) program was used to concatenate the raw data of both series. The heat of ligand dilution was determined separately and subtracted from the total heat produced following each injection. Protein concentrations were determined spectrophotometrically at 280 nm using the predicted monomeric molar extinction coefficient (10,095 OD cm^-1 M^-1). Titration data were analyzed with the ORIGIN software (GE Healthcare).

[8] = biological target: TAdV-3 fiber head mutant N407A (avirulent context) (Turkey adenovirus 3, UniProt A0ABF7PFF5, N407A); assay: biochemical; assay type: binding, turkey adenovirus 3 (TAdV-3)
[9] = biological target: TAdV-3 fibre head (avirulent) (Turkey adenovirus 3, UniProt A0ABF7PFF5); assay: Isothermal titration calorimetry (ITC), avirulent fibre head; assay type: binding, turkey adenovirus 3 (TAdV-3); details: 25°C
Description: as §2

[10] = biological target: TAdV-3 fiber head mutant K421A (avirulent context); details: ITC, 25°C, pH 6.0; n.o. = no binding observed
[11] = 10 μg/ml protein in TBS-T pH 7.2
[12] = pH 6.0, three independent sites per trimer

| Compound | inhibition of fibre head binding to the glycan microarray [1] | fluorescence intensity on glycan microarray [1, 11] | STD-NMR interaction (saturation transfer) [3] | STD-NMR interaction (saturation transfer) [4] | Kd [7, 12] [mM] | Kd ([7]; pH 7.2) [mM] | Kd [9, 12] [mM] | Kd ([9]; pH 7.2) [mM] | other results |
| --- | --- | --- | --- | --- | --- | --- | --- | --- | --- |
| OC[C@H]1O[C@@H](O[C@H]2[C@H](O)[C@@H](O)C(O)O[C@@H]2CO)[C@H](O)[C@@H](O)[C@H]1O (mixture of isomers) [lactose] | No binding inhibition |  |  |  |  |  |  |  |  |
| CC(=O)NC1C(O)CC(OC2C(O)C(CO)OC(OC3C(CO)OC(O)C(O)C3O)C2O)(C(=O)O)OC1C(O)C(O)CO (stereo not shown) [3'-sialyllactose] |  | 5,000 RFU | saturation transfer was observed | saturation transfer was observed | 5.5 ± 0.1 | ~37 | 3.64 ± 0.01 | ~24 | Kd [2]: 3.2 ± 0.2 mM; - ΔH ([2]; ITC, 25°C, pH 6.0): 3.9 ± 0.1 kcal/mol of sites; - ΔS ([2]; ITC, 25°C, pH 6.0): 1.7 ± 0.2 cal/mol of sites/deg; Kd [5]: ~20 mM; Kd [6]: 3.23 ± 0.03 mM; - ΔH ([6]; ITC, 25°C, pH 6.0): 3.86 ± 0.02 kcal/mol of sites; - ΔS ([6]; ITC, 25°C, pH 6.0): 1.54 ± 0.05 cal/mol of sites/deg; - ΔH ([7]; pH 6.0): 1.83 ± 0.03 kcal/mol of sites; - ΔS ([7]; pH 6.0): -4.19 ± 0.07 cal/mol of sites/deg; Kd [8]: 2.77 ± 0.04 mM; - ΔH ([8]; ITC, 25°C, pH 6.0): 4.66 ± 0.04 kcal/mol of sites; - ΔS ([8]; ITC, 25°C, pH 6.0): 3.9 ± 0.1 cal/mol of sites/deg; - ΔH ([9]; pH 6.0): 4.43 ± 0.01 kcal/mol of sites; - ΔS ([9]; pH 6.0): 3.70 ± 0.03 cal/mol of sites/deg; Kd [10]: n.o. ^d |
| CC(=O)NC1C(O)CC(OCC2OC(OC3C(CO)OC(O)C(O)C3O)C(O)C(O)C2O)(C(=O)O)OC1C(O)C(O)CO (stereo not shown) [6'-sialyllactose] |  | 6,100 RFU | saturation transfer was observed | saturation transfer was observed | ~20 | ~28 | ~7 | ~23 |  |
| O=C[C@H](O)[C@@H](O)[C@@H](O)[C@H](O)CO [galactose] | No binding inhibition |  |  |  |  |  |  |  |  |
| O=C[C@H](O)[C@@H](O)[C@H](O)CO [xylose] |  |  | no interaction with the proteins could be measured | no interaction with the proteins could be measured |  |  |  |  |  |
| transferrin: glycoprotein with 3'- and 6'-sialyl-N-acetyllactosamine terminal structures |  |  |  |  |  |  |  |  | binding on glycan microarray (in words) ([1]; 10 μg/ml protein in TBS-T pH 7.2, threshold five times background): did not bind |
